Measurements published in BindingDB's records for doi:10.1128/AAC.00311-07 (University of California San Francisco, 2007).

Target: T1, Lanosterol 14-alpha demethylase (Mycobacterium tuberculosis (strain CDC 1551 / Oshkosh), UniProt P9WPP8)
T1 sequence (P9WPP8 whole entry): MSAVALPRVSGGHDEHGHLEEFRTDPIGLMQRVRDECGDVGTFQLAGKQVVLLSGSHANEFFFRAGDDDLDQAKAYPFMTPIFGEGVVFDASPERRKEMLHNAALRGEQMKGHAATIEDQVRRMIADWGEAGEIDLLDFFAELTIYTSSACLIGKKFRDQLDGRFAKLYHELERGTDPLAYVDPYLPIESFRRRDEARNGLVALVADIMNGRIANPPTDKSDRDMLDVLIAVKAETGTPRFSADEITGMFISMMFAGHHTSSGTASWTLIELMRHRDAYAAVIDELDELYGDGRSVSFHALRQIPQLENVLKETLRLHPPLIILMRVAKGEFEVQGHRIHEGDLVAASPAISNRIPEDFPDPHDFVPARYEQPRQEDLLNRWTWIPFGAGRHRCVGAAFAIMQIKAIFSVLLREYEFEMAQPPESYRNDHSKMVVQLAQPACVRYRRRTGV
Assay: Ligand Binding Assay
Settings: pH 7.5; 37 °C
From the text: The assay was developed based on the optical spectral property of P450 enzyme to elicit both type I and type II spectral changes (350 nm through 450 nm). The concentration dependence of the changes allows the binding affinities of the ligands to be estimated. Titration data were linearized by plotting S0/deltaA against S0, where S0 is the total concentration of a ligand and deltaA is the change in absorption. The equilibrium dissociation constant (Kd) was extrapolated from the intercept of the linear plot with the S0 axis.

SMILES	Kd
Nc1ccc(NS(=O)(=O)c2ccc(Cl)cc2)cc1 [N-(4-aminophenyl)-4-chlorobenzene-1-sulfonamide]	7.5 µM
O=C1c2cc(O)ccc2-c2ccc(O)cc21 [2,7-Dihydroxy-9-fluorenone]	37.5 µM
C[C@]12CCC3c4ccc(O)cc4CCC3C1C[C@@H](O)[C@@H]2O (stereo partly drawn) [Epiestriol]	100 µM
O=C(Nc1ccncc1)C1(c2ccccc2)CCOCC1 [4-phenyl-N-pyridin-4-yltetrahydro-2H-pyran-4-carboxamide]	7.5 µM
COc1ccccc1C(CCN)c1ccco1 (stereo not drawn) [3-furan-2-yl-3-(2-methoxyphenyl)propan-1-amine]	7.5 µM
NCC(=O)N1c2ccccc2SC2C=CC=CC21 (stereo not drawn) [1-(10,10a-dihydro-4aH-phenothiazin-10-yl)-2-aminoethan-1-one]	7.5 µM
CCC1(C)CC(CCN)(c2ccc(OC)cc2)CCO1 (stereo not drawn) [2-[2-ethyl-4-(4-methoxyphenyl)-2-methyloxan-4-yl]ethan-1-amine]	7.5 µM
c1ccc(-c2c[nH]cn2)cc1	1300 µM
